According to patent publication US12391664B2, “GluN2C/D subunit selective antagonists of the N-methyl-D-aspartate receptor” (Emory University, priority 2018, dated 2025):

Legend:
[1] = tested on: recombinant GluN2A-D subunits; test: Two-electrode voltage-clamp recordings, statements on all receptors; format: cell-based, rat
Procedure: All target compounds were evaluated for activity by the Traynelis laboratory at Emory University using two-electrode voltage-clamp recordings performed in Xenopus laevis oocytes expressing recombinant GluN2A-D subunits (Table 1). […] Two ester compounds 997-65 and 997-66 also performed no inhibition at GluN2A to GluN2D receptors. […] Consequently, for the compounds that Acker et al. already published, it was necessary to increase the concentration to 100 μM when collecting data for a concentration effect curve. […] Therefore, under this condition, we can only conclude that compound 997-67 remained potent at GluN2C/D-containing receptors, but its selectivity over GluN2A- and GluN2B-containing receptors could not be compared to 997-57. […] Finally, replacing the carboxylic acid to the bio-isostere amide yielded compounds 997-96 and 997-115, which dropped the potency 2- to 4-fold in comparison to their corresponding acids 997-74 and 997-114.
Two-electrode voltage-clamp recordings were performed in Xenopus laevis oocytes that were injected with mRNA to express recombinant rat GluN1/GluN2A, GluN1/GluN2B, GluN1/GluN2C, and GluN1/GluN2D. The recordings using unfertilized oocytes from Xenopus laevis were permitted by Emory University Institutional Animal Care and Use Committee (IACUC). An automatic injector (Nanoject II, Drummond Scientific) was used for cRNA injection using the pipettes filled with mineral oil. The cRNA that transcribed in vitro via the mMessage Machine kit (Ambion) was diluted with nuclease-free water, and then injected at GluN1/GluN2 with a ratio of 1:2. The oocytes were stored in Barth's solution that contained 88 mM NaCl, 5.0 mM Tris-HCl, 2.4 mM NaHCO3, 1.0 mM KCl, 0.84 mM MgSO4, 0.41 mM CaCl2, 0.33 mM Ca(NO3)2, 0.1 mg/ml gentamycin sulfate, 1.0 U/ml penicillin, and 1 μg/ml streptomycin at a pH of 7.4 and temperatures of 15-17° C. for two to five days before the two-electrode voltage-clamp recordings. When recording, the oocytes were placed in a perfusion chamber and continually washed with the recording solution comprised of 90 mM NaCl, 1.0 mM KCl, 0.50 mM BaCl2, 0.005 mM EDTA, and 10 mM HEPES at a pH of 7.4 and a temperature of 23° C. Glass electrodes with a tip resistance of 0.5 to 2.5 MΩ were obtained from thin-walled glass capillary tubes. Voltage electrodes and current electrodes were filled with 0.3 M and 3.0 M KCl, respectively. The recordings were executed with the oocytes membrane potential holding at −40 m V by an OC-725 amplifier (Warner Instrument Co). All compounds were dissolved in dimethyl sulfoxide (DMSO) as 20 mM stock solutions and future diluted to reach the desired concentration (0.05-0.5% (vol/vol) DMSO) in recording solution comprised of 30 μM glycine and 100 μM glutamate. Each compound was recorded 3-7 times in the least 4 oocytes from at least 2 different Xenopus laevis.
To evaluate the inhibition of compounds, the concentration-response curve was fitted with the average two-electrode voltage-clamp recording results with the equation
[formula] • where IC50 is the concentration of compounds that inhibit half maximal of the current response and N is the Hill slope.

[2] = biological target: T1, recombinant rat GluN1/GluN2B (Rattus norvegicus, UniProt Q00960); test: Two-electrode voltage-clamp recordings in Xenopus laevis oocytes, GluN2B; format: cell-based; conditions: oocytes, 100 μM glutamate and 30 μM glycine
T1 construct: expressed in transfected cells; host or cells: Xenopus laevis oocytes injected with cRNA (GluN1:GluN2 ratio 1:2)
T1 sequence (Q00960 27-1482, other chains not shown): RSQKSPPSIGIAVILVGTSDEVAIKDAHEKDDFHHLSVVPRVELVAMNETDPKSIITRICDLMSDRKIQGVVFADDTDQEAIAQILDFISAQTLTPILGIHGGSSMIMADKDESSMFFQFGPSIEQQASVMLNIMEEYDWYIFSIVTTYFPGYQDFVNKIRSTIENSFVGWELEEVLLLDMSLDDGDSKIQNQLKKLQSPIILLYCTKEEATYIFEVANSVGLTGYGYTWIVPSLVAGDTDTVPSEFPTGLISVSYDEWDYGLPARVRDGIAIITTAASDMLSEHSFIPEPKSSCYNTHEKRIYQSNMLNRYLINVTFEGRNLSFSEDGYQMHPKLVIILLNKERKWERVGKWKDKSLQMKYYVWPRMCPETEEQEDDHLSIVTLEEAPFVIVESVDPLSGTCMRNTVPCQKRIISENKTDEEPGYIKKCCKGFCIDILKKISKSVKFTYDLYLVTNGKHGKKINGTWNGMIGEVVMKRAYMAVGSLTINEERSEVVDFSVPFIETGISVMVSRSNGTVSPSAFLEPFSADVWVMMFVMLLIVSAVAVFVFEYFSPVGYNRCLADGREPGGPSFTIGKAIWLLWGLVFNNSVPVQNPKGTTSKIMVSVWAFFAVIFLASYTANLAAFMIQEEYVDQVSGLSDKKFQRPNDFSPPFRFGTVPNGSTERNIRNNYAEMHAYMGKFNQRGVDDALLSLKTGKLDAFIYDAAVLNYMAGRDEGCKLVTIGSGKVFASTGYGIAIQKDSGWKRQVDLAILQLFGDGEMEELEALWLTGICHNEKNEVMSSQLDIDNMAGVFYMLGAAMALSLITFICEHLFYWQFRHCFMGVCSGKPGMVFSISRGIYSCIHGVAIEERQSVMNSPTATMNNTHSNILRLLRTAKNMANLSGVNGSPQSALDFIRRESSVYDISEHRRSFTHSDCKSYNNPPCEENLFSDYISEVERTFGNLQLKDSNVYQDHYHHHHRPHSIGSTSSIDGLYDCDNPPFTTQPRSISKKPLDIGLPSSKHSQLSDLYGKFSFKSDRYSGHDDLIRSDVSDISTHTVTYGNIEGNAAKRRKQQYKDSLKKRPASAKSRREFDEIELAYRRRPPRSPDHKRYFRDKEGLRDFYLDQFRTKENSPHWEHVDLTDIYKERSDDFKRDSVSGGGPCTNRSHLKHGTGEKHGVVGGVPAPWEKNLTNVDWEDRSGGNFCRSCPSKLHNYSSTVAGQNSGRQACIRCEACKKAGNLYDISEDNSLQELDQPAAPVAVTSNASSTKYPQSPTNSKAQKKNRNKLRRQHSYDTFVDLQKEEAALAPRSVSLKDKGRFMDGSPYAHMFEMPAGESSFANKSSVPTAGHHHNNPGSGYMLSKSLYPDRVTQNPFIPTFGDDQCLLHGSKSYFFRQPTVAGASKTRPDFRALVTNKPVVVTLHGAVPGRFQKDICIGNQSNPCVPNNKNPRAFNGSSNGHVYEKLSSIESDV
Outline: (§1)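 Oocytes injected with rat GluN1/GluN2 cRNA (1:2), held 2–5 days at 15–17 °C, clamped at −40 mV in Ba2+-containing recording solution, pH 7.4, 23 °C. Compounds applied (up to 100 μM) with 100 μM glutamate plus 30 μM glycine. IC50 and Hill slope from concentration-response fits of averaged current inhibition.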

[3] = biological target: T2, recombinant rat GluN1/GluN2C (Rattus norvegicus, UniProt Q00961); test: Two-electrode voltage-clamp recordings in Xenopus laevis oocytes, GluN2C; format: cell-based; conditions: oocytes, 100 μM glutamate and 30 μM glycine
T2 construct: expressed in transfected cells; host or cells: Xenopus laevis oocytes injected with cRNA (GluN1:GluN2 ratio 1:2)
Outline: as §1

[4] = biological target: T3, recombinant rat GluN1/GluN2A (Rattus norvegicus, UniProt Q00959); test: Two-electrode voltage-clamp recordings in Xenopus laevis oocytes, GluN2A; format: cell-based; conditions: oocytes, 100 μM glutamate and 30 μM glycine
T3 construct: expressed in transfected cells; host or cells: Xenopus laevis oocytes injected with cRNA (GluN1:GluN2 ratio 1:2)
Outline: as §1

[5] = biological target: T4, recombinant rat GluN1/GluN2D (Rattus norvegicus, UniProt Q62645); test: Two-electrode voltage-clamp recordings in Xenopus laevis oocytes, GluN2D; format: cell-based; conditions: oocytes, 100 μM glutamate and 30 μM glycine
T4 construct: expressed in transfected cells; host or cells: Xenopus laevis oocytes injected with cRNA (GluN1:GluN2 ratio 1:2)
T4 sequence (Q62645 28-1323, other chains not shown): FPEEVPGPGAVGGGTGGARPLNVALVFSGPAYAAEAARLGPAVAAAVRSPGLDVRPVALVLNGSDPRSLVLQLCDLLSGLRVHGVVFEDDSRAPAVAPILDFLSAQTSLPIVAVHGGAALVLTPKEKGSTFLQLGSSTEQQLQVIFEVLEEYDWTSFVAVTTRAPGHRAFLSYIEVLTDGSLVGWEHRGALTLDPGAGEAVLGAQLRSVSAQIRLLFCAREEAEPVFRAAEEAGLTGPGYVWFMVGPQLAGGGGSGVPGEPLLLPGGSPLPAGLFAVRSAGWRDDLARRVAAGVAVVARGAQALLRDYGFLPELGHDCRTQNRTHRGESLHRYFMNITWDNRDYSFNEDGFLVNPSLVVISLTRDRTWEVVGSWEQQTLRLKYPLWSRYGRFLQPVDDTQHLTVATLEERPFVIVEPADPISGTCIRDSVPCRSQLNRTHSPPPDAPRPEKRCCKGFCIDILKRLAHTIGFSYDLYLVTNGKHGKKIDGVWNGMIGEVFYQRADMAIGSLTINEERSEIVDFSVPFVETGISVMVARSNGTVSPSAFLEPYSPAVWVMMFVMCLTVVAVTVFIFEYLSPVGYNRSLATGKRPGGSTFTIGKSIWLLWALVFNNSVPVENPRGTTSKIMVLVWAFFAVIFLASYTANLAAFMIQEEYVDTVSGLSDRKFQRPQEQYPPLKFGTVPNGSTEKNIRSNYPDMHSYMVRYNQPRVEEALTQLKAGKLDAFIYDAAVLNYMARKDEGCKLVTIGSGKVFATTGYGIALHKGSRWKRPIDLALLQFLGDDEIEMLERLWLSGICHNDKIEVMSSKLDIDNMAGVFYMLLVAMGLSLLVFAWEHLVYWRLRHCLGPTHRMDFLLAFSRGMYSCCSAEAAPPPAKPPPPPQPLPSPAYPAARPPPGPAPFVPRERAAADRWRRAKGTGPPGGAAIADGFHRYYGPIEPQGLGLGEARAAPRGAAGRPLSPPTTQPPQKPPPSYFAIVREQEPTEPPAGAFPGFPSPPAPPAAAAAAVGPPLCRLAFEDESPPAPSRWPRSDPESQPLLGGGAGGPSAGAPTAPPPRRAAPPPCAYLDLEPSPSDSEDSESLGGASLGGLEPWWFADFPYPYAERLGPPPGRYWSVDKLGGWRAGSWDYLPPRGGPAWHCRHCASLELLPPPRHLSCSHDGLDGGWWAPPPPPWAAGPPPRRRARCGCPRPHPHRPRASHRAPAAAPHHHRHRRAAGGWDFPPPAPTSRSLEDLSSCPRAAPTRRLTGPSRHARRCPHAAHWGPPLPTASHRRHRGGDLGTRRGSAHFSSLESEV
Outline: as §1

GluN2C- and GluN2D = conditions: GluN2C- and GluN2D-selective potentiator; read-out: EC50 (potentiation); cited from earlier work
[6] = biological target: NMDA receptors that contain GluN2B (Homo sapiens, UniProt Q05586+Q13224); conditions: cited from earlier work
Sequence of NMDA receptors that contain GluN2B (Q13224 27-1484, other chains not shown): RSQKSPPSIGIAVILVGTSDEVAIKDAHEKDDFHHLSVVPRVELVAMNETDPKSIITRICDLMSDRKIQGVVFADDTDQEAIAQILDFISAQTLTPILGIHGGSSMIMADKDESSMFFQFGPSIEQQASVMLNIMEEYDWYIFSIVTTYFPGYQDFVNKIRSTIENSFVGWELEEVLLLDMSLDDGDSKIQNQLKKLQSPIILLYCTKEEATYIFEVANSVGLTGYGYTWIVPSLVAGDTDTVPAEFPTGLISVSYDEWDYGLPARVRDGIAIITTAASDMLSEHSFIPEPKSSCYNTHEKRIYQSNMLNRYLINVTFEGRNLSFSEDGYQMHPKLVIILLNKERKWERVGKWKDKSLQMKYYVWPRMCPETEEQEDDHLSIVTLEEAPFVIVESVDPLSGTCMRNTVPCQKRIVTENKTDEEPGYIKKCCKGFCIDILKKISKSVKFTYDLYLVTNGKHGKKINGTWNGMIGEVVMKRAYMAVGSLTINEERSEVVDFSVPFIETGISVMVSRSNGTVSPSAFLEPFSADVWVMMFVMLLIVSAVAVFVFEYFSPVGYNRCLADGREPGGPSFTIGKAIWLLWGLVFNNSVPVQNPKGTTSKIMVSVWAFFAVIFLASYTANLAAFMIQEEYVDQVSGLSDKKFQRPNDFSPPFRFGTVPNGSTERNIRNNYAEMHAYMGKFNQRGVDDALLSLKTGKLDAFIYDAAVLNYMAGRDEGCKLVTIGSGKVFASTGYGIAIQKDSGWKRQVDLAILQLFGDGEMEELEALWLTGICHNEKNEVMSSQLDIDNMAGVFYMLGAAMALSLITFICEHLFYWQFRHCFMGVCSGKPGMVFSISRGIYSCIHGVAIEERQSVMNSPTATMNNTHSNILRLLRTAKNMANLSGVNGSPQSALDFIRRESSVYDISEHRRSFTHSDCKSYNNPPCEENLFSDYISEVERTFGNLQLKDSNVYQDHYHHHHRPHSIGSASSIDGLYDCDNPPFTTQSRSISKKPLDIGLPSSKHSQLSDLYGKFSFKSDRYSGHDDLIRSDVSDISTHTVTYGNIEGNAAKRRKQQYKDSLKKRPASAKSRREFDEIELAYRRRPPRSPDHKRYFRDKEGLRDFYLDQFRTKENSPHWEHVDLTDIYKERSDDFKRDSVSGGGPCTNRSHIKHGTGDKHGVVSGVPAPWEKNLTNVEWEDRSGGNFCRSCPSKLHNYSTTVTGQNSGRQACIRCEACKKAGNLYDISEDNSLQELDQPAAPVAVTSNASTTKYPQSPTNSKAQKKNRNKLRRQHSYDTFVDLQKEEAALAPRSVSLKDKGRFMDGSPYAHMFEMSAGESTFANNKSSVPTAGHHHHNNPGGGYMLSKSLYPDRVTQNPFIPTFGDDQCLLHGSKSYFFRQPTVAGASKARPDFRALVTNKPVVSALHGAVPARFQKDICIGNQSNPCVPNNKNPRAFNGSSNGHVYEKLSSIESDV

GluN2C subunit = GluN2C subunit (Homo sapiens, UniProt Q14957); conditions: read-out: EC50 (potentiation at GluN2C subunit); cited from earlier work

## O=C(O)CCC(=O)N1N=C(c2ccccc2-c2ccc(Cl)cc2)CC1c1cccc2c1OCO2 (centres unmarked) [997-122, 4-(5-(benzo[d][1,3]dioxol-4-yl)-3-(4′-chloro-[1,1′-biphenyl]-2-yl)-4,5-dihydro-1H-pyrazol-1-yl)-4-oxobutanoic acid]
[1]
  activity at all receptors (GluN2A to GluN2D), in words: inactive
[2]
  GluN2B IC50: NE (NE indicates less than 50% inhibition at 30 μM.)
[3]
  GluN2C IC50: NE (NE indicates less than 50% inhibition at 30 μM.)
[4]
  GluN2A IC50: NE (NE indicates less than 50% inhibition at 30 μM.)
[5]
  GluN2D IC50: NE (NE indicates less than 50% inhibition at 30 μM.)

## COc1ccc(OCC2c3cc(OC)c(OC)cc3CCN2C(=O)c2cccc(Cl)c2)cc1 (centres unmarked) [CIQ, (3-chlorophenyl)(6,7-dimethoxy-1-((4-methoxyphenoxy)methyl)3,4-dihydroisoquinolin-2(1H)-yl)methanone]
GluN2C- and GluN2D
  EC50: 3 to 6 µM

## CC(C(O)c1ccc(O)cc1)N1CCC(Cc2ccccc2)CC1 (centres unmarked) [Ifenprodil]
[6]
  fold more potent at GluN2B than at GluN2A, GluN2C or GluN2D containing receptors: approximately 200 fold

## COC(=O)c1ccc(C2C(C(C)=O)=C(O)C(=O)N2CCc2c(C)[nH]c3ccccc23)cc1 (centres unmarked) [PYD-106]
GluN2C subunit
  EC50: 13 µM
